US9415107B2, “Compositions and methods for the treatment of addiction and other neuropsychiatric disorders” (priority 2005, dated 2016)
Entries after “also recorded” stand apart in the source; their conditions may differ.

Key:
[1] = tested on: adult male Wistar rats; assay: Cue-induced reinstatement of extinguished cocaine seeking (model of relapse); type: in vivo, rat; conditions: for reinstatement of extinguished cocaine seeking: pretreatment with the drug alone, general statement
Text: In our model, rats were exposed to alternating 15-minute periods of access to cocaine self-administration and food reinforcement. Food was used to control for potential nonspecific, ataxis effects of the drugs and combinations. […] The other preclinical model we used is the cue-induced reinstatement of extinguished cocaine seeking model of relapse. In this model, rats are trained to self-administer cocaine and the ability of conditioned cues in the environment to reinstate extinguished responding is assessed and taken as a measure of relapse.
The experiments described herein were designed to investigate whether or not drug combinations identified as effective in reducing cocaine self-administration would also block the ability of conditioned cues to reinstate extinguished cocaine-seeking behavior. Adult male Wistar rats were implanted with chronic jugular catheters and trained to self-administer cocaine (0.25 mg/kg/infusion) by pressing one of the response levers in the experimental chamber (i.e., the “active” or “cocaine” lever) under a fixed-ratio four (FR4) schedule of reinforcement during daily 2-hour sessions conducted 5 days per week. At the start of each session, both levers were extended into the chamber and the stimulus light above the active lever was illuminated to indicate the availability of cocaine. […] A 20-second timeout period followed each infusion. The stimulus light above the active lever and the house light and tone compound stimulus were extinguished during the timeout period, and the light above the active lever was illuminated once the timeout ended. When responding on the active lever varied less than 20% for two consecutive days, the response requirement was increased to FR2. When similar stability was observed under the FR2 schedule or reinforcement, the response requirement was increased to the final ratio of four. The criteria for stable responding under the FR4 schedule of reinforcement was a minimum of 10 days of exposure to this schedule that concluded with at least three consecutive days when responding varied by less than 10%. […] Once stable cocaine self-administration was observed, rats were exposed to extinction; the rats were placed into the behavioral chambers, but responding on the “cocaine” (active) lever produced no programmed consequences. Extinction training continued until responding decreased to less than 20% of baseline self-administration. Then reinstatement testing commended. The rats were placed into the experimental chambers, both response levers were extended into the chamber, and the stimulus light above the “active” lever was illuminated as during self-administration training. […] Responding on the “active” lever during reinstatement testing was taken as an index of cocaine-seeking behavior. Each experimental group consisted of 8 to 10 rats.

[2] = tested on: male Wistar rats; assay: Forced Swim Test (FST), animal model of depression
[3] = tested on: adult male Wistar rats; assay: Intravenous cocaine self-administration under a multiple, alternating schedule of food reinforcement and cocaine self-administration; type: in vivo, rat; conditions: for cocaine self-administration (number of infusions): ip pretreatment; for cocaine self-administration: pretreatment with the drug alone, general statement
Protocol: Adult male Wistar rats were trained under a multiple, alternating schedule of cocaine and food self-administration. This schedule consisted of alternating periods of cocaine access and food reinforcement. In some instances, as described further below, three doses of cocaine (0.125, 0.25, or 0.50 mg/kg/infusion) were tested. Rats were also periodically trained with saline substitution (cocaine extinction) and food extinction during the same session.
More specifically, adult male Wistar rats were implanted with chronic jugular catheters. Following recovery from surgery, the rats were trained to respond under a multiple, alternating schedule of food reinforcement and cocaine self-administration. Food-maintained responding was used to control for the non-specific motor effects of the various treatments. During the food component of the schedule, the stimulus light located above the food response lever was illuminated to indicate the availability of food reinforcement. […] A 25-second timeout followed the delivery of each food pellet. During this timeout, the stimulus light was darkened and responses on the food lever were counted but had no scheduled consequences. Responding on the other (cocaine) lever during the food component also had no scheduled consequences. […] Following 15 minutes of access to food, all stimulus lights in the chamber were darkened for a 1-minute timeout. Following the timeout, the stimulus light above the cocaine response lever was illuminated to indicate the availability of cocaine (0.125, 0.25, or 0.5 mg/kg/infusion). […] A 20-second timeout period followed each infusion. […] After 15 minutes of access to cocaine and a 1-minute timeout, the rats were again allowed 15 minutes access to the food component of the schedule. Access to food and cocaine alternated in this manner every 15 minutes during the two hour behavioral sessions so that each rat was exposed to food and cocaine for four 15-minute periods each. Each behavioral session began with 15 minutes access to either food or cocaine, and this alternated daily. Stable baselines of responding were established when the total number of cocaine and food presentations, as well as the number of presentations during each of the four exposures each session, varied less than 10% for three consecutive sessions. At least three different doses of cocaine (e.g., 0.125, 0.25, and 0.5 mg/kg/infusion) were tested. Rats were first trained to self-administer 0.25 mg/kg/infusion, our standard dose of cocaine. When responding stabilized, the dose was changed to 0.125 or 0.5 mg/kg/infusion as appropriate.
Once stable baselines of responding were obtained, dose-response curves for the various compounds were individually generated for each rat. Rats were treated with each dose at least twice with a minimum of two days of baseline cocaine self-administration interspersed between each test. Each group of rats was tested with only two of the test compounds to minimize potential carryover effects. […] This rationale guided the selection of the doses of each of the compounds in the combination studies. Each experimental group consisted of between 8 and 10 rats.

[4] = tested on: plasma corticosterone; assay: Plasma corticosterone after metyrapone pretreatment; conditions: pretreatment with metyrapone
[5] = Pharmacokinetic interaction between cocaine, metyrapone and oxazepam (plasma concentrations by GCMS); conditions: presence of iv cocaine
Protocol: Adult male Wistar rats (90 to 120 days old) were implanted with chronic, indwelling jugular catheters and were allowed to recover from surgery. […] Thirty minutes following the drug combination or vehicle injection, the rats received intravenous injections of cocaine (0.25 mg/kg/infusion) every 2 minutes for 1 hour. After the final injection of cocaine, blood was collected from the catheter for the analysis of cocaine and its metabolites ecgonine methyl ester and benzoylecgonine. […] All drug concentrations were determined using GCMS procedures.

[6] = low, ineffective dose of the drug alone

Structure (SMILES)	cocaine seeking (responding on the active lever during reinstatement) ([1]; chronic metyrapone 50 mg/kg, ip, once per day for 14 days)	reinstatement of extinguished cocaine seeking [1]	immobility time in the FST ([2]; chronic administration, Met50 group (metyrapone 50 mg/kg alone))	mean immobility time relative to vehicle (tolerance) ([2]; chronically treated groups that received only Ox or Met)	cocaine self-administration (number of infusions) ([3]; high dose of the drug alone)	cocaine self-administration (number of infusions) [3, 6]	cocaine self-administration [3]	plasma corticosterone [4]	effect on plasma concentrations of metyrapone or oxazepam [5]	minimally effective dose that reduced cocaine self-administration by at least 50% without affecting food-maintained responding ([3]; drug alone) [mg/kg]
CC(C)(C(=O)c1cccnc1)c1cccnc1 [metyrapone]	reduced cocaine seeking to levels seen when only saline was delivered	decrease	showed a lessening of immobility time	equal to or exceeded the vehicle	reduced cocaine self-administration	did not significantly affect cocaine self-administration; also recorded: no longer affected cocaine self-administration	decrease; also recorded: significant dose-related decreases	significant dose-related decreases	–	–
CCCCN(CC)c1nc(C)nc2c1c(C)cn2-c1c(C)cc(C)cc1C [CP-154,526]	–	decrease	–	–	reduced cocaine self-administration	did not significantly affect cocaine self-administration	decrease	–	–	–
Cc1nnc2n1-c1ccc(Cl)cc1C(c1ccccc1)=NC2 [alprazolam]	–	decrease	–	–	reduced cocaine self-administration	did not significantly affect cocaine self-administration	decrease	–	–	–
COC(=O)[C@H]1[C@@H](OC(=O)c2ccccc2)C[C@@H]2CC[C@H]1N2C [cocaine]	–	–	–	–	–	–	–	–	did not affect	–
NCc1cc(=O)[nH]o1 [muscimol]	–	–	–	–	reduced cocaine self-administration	did not significantly affect cocaine self-administration	–	–	–	–
CC(=O)N1CCN(c2ccc(OCC3COC(Cn4ccnc4)(c4ccc(Cl)cc4Cl)O3)cc2)CC1 (centres unmarked) [ketoconazole]	–	decrease	–	–	–	no effect; also recorded: did not significantly affect cocaine self-administration	decrease	–	–	25
